Measurements: US20150272939A1, “Identification of Small Molecule Inhibitors of Jumonji AT-Rich Interactive Domain 1A (JARID1A) and 1B (JARID1B) Histone Demethylase” (Yale University, priority 2012, published 2015)
Values joined by “and” are separate entries in the source; they are usually repeats but may differ in a detail not shown here. Identical values can stand only once. Counter-ions that a name gives are not always drawn. Like-named read-outs stand apart in the source and are kept apart here.

How the values were obtained:
JARID1B = biological target: T1, JARID1B (Homo sapiens, UniProt Q9UGL1); assay: FLAG-JARID1B histone demethylase assay with AlphaScreen detection (HTS and dose response); type: biochemical; settings: for Assay − Artifact Signal (percent): assay signal minus artifact signal; for inhibition at 20 µM: read-out: Inhibitory effect (percent); for Assay Signal (percent): effect of compound in JARID1B AlphaScreen assay;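 for Assay Signal (percent): compound tested at 20 µM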;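 for Assay − Artifact Signal (percent): compound tested at 20 µM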;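 for all read-outs here: FLAG-tagged JARID1B at 4 nM acting on a biotinylated H3K4me3 peptide, demethylation read by AlphaScreen luminescence, with hits checked against bio-H3K4me2 without enzyme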
T1 construct: The FLAG tagged full length JARID1B enzyme was expressed in Sf21 insect cells using FLAG-JARID1B baculoviruses; FLAG (N); made in house; host or cells: Sf21 insect cells (baculovirus)
T1 sequence (Q9UGL1 whole entry): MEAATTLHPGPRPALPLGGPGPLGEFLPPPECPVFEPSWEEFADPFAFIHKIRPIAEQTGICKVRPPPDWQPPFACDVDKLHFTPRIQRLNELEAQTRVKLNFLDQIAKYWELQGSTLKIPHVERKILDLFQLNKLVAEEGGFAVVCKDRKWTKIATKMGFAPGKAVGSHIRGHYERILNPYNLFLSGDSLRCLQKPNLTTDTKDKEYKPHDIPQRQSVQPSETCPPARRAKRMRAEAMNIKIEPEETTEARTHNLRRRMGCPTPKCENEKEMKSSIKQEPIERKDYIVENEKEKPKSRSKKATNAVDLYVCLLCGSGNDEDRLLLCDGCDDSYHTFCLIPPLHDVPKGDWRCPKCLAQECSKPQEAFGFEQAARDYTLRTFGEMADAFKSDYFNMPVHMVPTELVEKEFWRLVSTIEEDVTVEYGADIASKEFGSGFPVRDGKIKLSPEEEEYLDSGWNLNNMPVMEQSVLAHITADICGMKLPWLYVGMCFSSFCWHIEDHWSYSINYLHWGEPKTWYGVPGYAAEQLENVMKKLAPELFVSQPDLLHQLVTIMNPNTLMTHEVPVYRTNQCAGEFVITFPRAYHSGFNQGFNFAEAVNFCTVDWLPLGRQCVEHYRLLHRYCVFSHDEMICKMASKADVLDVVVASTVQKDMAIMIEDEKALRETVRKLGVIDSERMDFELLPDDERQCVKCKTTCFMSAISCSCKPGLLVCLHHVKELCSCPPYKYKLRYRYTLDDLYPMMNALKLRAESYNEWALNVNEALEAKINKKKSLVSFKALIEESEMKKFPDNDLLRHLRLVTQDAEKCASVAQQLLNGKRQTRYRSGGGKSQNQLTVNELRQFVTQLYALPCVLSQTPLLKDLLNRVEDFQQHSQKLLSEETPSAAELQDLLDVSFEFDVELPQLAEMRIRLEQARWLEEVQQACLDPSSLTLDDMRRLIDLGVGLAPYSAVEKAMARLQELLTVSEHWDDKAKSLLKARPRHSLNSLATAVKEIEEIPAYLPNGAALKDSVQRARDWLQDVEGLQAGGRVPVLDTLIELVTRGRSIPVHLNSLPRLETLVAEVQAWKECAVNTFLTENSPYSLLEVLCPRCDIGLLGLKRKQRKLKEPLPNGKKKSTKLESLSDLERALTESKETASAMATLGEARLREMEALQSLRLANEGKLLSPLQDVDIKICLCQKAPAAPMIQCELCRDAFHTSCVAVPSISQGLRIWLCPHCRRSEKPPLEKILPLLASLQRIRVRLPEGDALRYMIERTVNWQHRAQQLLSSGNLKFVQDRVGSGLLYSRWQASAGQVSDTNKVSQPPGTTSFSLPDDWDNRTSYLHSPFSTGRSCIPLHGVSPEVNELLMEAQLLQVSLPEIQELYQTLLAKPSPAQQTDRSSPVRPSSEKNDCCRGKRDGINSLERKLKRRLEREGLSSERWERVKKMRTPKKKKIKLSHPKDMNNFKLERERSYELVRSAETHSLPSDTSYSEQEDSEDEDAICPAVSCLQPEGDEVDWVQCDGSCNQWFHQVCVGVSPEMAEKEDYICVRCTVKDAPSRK

[1] = AlphaScreen counterscreen against bio-H3K4me2 peptide in the absence of enzyme (artifact signal); settings: for Artifact Signal (percent): effect of the compound when incubated with bio-H3K4me2 peptide (counterscreen, no enzyme);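 for all read-outs here: counterscreen run without enzyme against bio-H3K4me2 peptide to remove false positive hits from the JARID1 demethylase AlphaScreen screen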
[2] = high-throughput screen, compound 20 μM, standard demethylase conditions (10 μM α-KG, 50 μM Fe (II))
[3] = validation of HTS actives, total signal before subtraction of artifact signal
[4] = counterscreen, bio-H3K4me2 peptide, no enzyme
[5] = high-throughput screen, compound 20 μM, IDs marked *: additional hits under reaction condition with 1 mM α-KG

Row | SMILES | Assay − Artifact Signal (percent) (JARID1B) [%] | inhibition at 20 µM (JARID1B; [2]) [%] | Assay Signal (percent) (JARID1B; validation of HTS actives) | Artifact Signal (percent) [1] | also measured
1 | CCCCC(=O)Nc1ccc(N(C)CCc2c(C)nn(C)c2C)c(C(=O)O)c1 [YU208232] | 19.26 | 50.5 | 37.92% | 18.67% | 
2 | N#CC(=CC=Cc1ccco1)C(N)=S (single isomer, unassigned) [YU144893] | 22.61 | 44.6 | 62.72% | 40.11% | 
3 | N#CC(=Cc1ccc(-c2ccccc2)o1)C(N)=S [YU146534] | 10.89 | 32.8 | 15.42% | 4.53% | 
4 | CSc1nc2cc(F)c(F)cc2n1C [YU145132] |  | 91.5 |  |  | Validation result of HTS active: effect of the compound in the JARID1B AlphaScreen demethylase assay (JARID1B; [3]): −6.93; Artifact signal: effect of the compound when it is incubated with bio-H3K4me2 peptide [1, 4]: −7.06
5 | N#CC(=Cc1cc(O)c(O)c(O)c1)C(N)=C(C#N)C#N (single isomer, unassigned) [YU154835, TYRPHOSTIN 51, reference compound] | 23.04 | 69.7 | 46.05% | 23.01% | 
6 | [O-][n+]1ccccc1[S-].[O-][n+]1ccccc1[S-].[Zn+2] [YU033800, PYRITHIONE ZINC, reference compound] |  |  |  |  | Inhibitory effect (percent) (JARID1B): 99.02%; Validation effect minus artifact signal (JARID1B): 1.60; Validation result of HTS active: effect of the compound in the JARID1B AlphaScreen demethylase assay (JARID1B): −18.35; Artifact signal: effect of the compound when it is incubated with bio-H3K4me2 peptide [1]: −19.95
7 | O=c1c(O)c(-c2ccc(O)c(O)c2)oc2cc(O)cc(O)c12 [YU154882, QUERCETIN, reference compound] |  | 86 | 100.88% and 78.65% | 78.83% and 68.48% | Inhibitory effect (percent) (JARID1B; [2]): 93.51%
8 | CC(=O)Nc1ccccc1NC(=O)c1ccc2c(c1)OCO2 [YU149951] | 8.46 | 84.7 | 6.61% | −1.85% | 
9 | c1ccc2c(NCc3ccncc3)cccc2c1 [YU145649] | 87.87 | 87.7 | 89.97% | 2.10% | 
10 | CC(NC(=S)Nc1ccc2c(c1)OCO2)c1ccncc1 (centres unmarked) [YU150371] | 8.09 | 31.8 | 6.16% | −1.93% | 
11 | Cc1ccc([N+](=O)[O-])cc1N(CC(=O)Nc1ccc(Cl)c(C(F)(F)F)c1)S(C)(=O)=O [YU121632] |  | 59.2 |  |  | Validation result of HTS active: effect of the compound in the JARID1B AlphaScreen demethylase assay (JARID1B; [3]): 2.95; Artifact signal: effect of the compound when it is incubated with bio-H3K4me2 peptide [1, 4]: −1.84
12 | C=CCn1c(Cc2nc3ccccc3[nH]2)n[nH]c1=S [YU147658] | 28.18 | 32.8 | 27.63% | −0.55% | 
13 | Cc1ccc(C(C#N)=Cc2ccc(N3CCOCC3)o2)cc1 (single isomer, unassigned) [YU149607] | 37.94 | 43.1 | 40.44% | 2.50% | 
14 | S=C(Nc1ccc2c(c1)OCO2)Nn1cnnc1 [YU147019] | 17.76 | 37.3 | 16.46% | −1.29% | 
15 | N[C@@H](Cc1ccc(O)c(O)c1)C(=O)O [YU034332, LEVODOPA, reference compound] | 41.47 | 68.8 | 55.74% | 14.27% | 
16 | O=C(NC(=S)NCc1ccccc1)C1CCCC1 [YU147054] | 24.52 | 33.9 | 22.98% | −1.54% | 
17 | C=C1c2cccc(O)c2C(=O)C2=C(O)[C@]3(O)C(=O)C(C(N)=O)=C(O)[C@@H](N(C)C)[C@@H]3[C@@H](O)[C@H]12 [YU034167, METHACYCLINE HYDROCHLORIDE, reference compound] |  | 51.5 |  |  | Validation result of HTS active: effect of the compound in the JARID1B AlphaScreen demethylase assay (JARID1B; [3]): 62.51; Artifact signal: effect of the compound when it is incubated with bio-H3K4me2 peptide [1, 4]: 56.96
18 | CC(=O)Nc1ccc(N(C)CCCc2c(C)nn(C)c2C)c(C(=O)O)c1 [YU208230] |  | 38.5 |  |  | Validation result of HTS active: effect of the compound in the JARID1B AlphaScreen demethylase assay (JARID1B; [3]): 24.45; Artifact signal: effect of the compound when it is incubated with bio-H3K4me2 peptide [1, 4]: 17.72
19 | COCCCNCCOc1cc(C(C)C)ccc1C [YU147245] | 12.07 | 30.9 | 13.31% | 1.25% | 

Row | SMILES | Assay − Artifact Signal (percent) (JARID1B) [%] | inhibition at 20 µM (JARID1B; [2]) [%] | Assay Signal (percent) (JARID1B; validation of HTS actives) | Artifact Signal (percent) [1] | also measured
20 | CCSc1nnc(-c2cc(OC)cc(OC)c2)o1 [YU147278] | 15.14 | 32.8 | 9.43% | −5.71% | 
21 | O=C(NC1CCCCC1)c1ccc(NC(=O)c2ccccc2O)cc1 [YU154737] | 23.65 | 45 | 28.23% | 4.58% | 
22 | O=C(O)c1cc(O)c2c(c1)[C@H]([C@H]1c3cc(C(=O)O)cc(O)c3C(=O)c3c(O[C@@H]4O[C@H](CO)[C@H](O)[C@H](O)[C@H]4O)cccc31)c1cccc(O[C@@H]3O[C@H](CO)[C@H](O)[C@H](O)[C@@H]3O)c1C2=O (stereo in doubt) [YU155305, SENNOSIDE B, reference compound] |  | 105 |  |  | Validation result of HTS active: effect of the compound in the JARID1B AlphaScreen demethylase assay (JARID1B; [3]): 4.04; Artifact signal: effect of the compound when it is incubated with bio-H3K4me2 peptide [1, 4]: −0.34
23 | CCN(CC)CCOc1ccc(/C(=C(\Cl)c2ccccc2)c2ccccc2)cc1 [YU033752, CLOMIPHENE CITRATE, reference compound] | 15.81 | 47 | 16.67% | 0.86% | 
24 | COC1=CC(=O)C(O)=CC1=CC=Cc1ccccc1 (single isomer, unassigned) [YU155007, OBTUSAQUINONE, reference compound] | 43.75 | 48.7 | 51.64% | 7.90% | 
25 | O=C(O)C=Cc1ccc(O)c(O)c1 (single isomer, unassigned) [YU155280, CAFFEIC ACID, reference compound] |  | 67.3 |  | −1.92% | 
26 | O=C(Nc1ccc(N2Cc3ccccc3OC(c3ccccc3)C2)c(C(=O)O)c1)c1ccccc1F (centres unmarked) [YU208213] |  |  |  |  | Validation result of HTS active: effect of the compound in the JARID1B AlphaScreen demethylase assay (JARID1B; [3]): 37.72; Artifact signal: effect of the compound when it is incubated with bio-H3K4me2 peptide [1, 4]: 32.32
27 | CCN(CC)C(=S)SSC(=S)N(CC)CC [YU035331, reference compound] | 40.15 |  | 36.77% | −3.39% | inhibition at 20 µM (JARID1B; [5]): 40.5%
28 | CN(C)[C@@H]1C(O)=C(C(N)=O)C(=O)[C@@]2(O)C(O)=C3C(=O)c4c(O)ccc(Cl)c4[C@@](C)(O)[C@H]3C[C@@H]12 [YU033743, AUREOMYCIN, reference compound] | 27.81 |  | 28.24% | 0.43% | inhibition at 20 µM (JARID1B; [5]): 90%
29 | O=c1c(O[C@@H]2O[C@H](CO)[C@@H](O)[C@H](O)[C@H]2O)c(-c2ccc(O)c(O)c2)oc2cc(O)cc(O)c12 [YU221011, Isoquercitrin, reference compound] | 36.99 | 45.1 | 52.16% | 15.17% | 
30 | O=c1c(-c2cc(O)c(O)c(O)c2)coc2cc(O)c(O)c(O)c12 [YU155411, IRIGENOL, reference compound] | 31.75 | 94.9 | 22.64% | −9.11% | 
31 | Oc1cc2c(cc1O)C1c3ccc(O)c(O)c3OCC1(O)C2 (centres unmarked) [YU155005, HAEMATOXYLIN, reference compound] | 64.59 | 101 | 98.90% | 34.32% | 
32 | Oc1cccc(C(=S)N2CCN(Cc3ccccc3)CC2)c1 [YU151559] | 18.39 | 36.9 | 27.61% | 9.22% | 
33 | CCC(=O)c1c(O)n(C)c(=O)n(C)c1=O [YU145029] | 34.42 | 61.6 | 34.53% | 0.11% | 
34 | Nc1c([N+](=O)[O-])cc(F)c(N2CCOCC2)c1Br [YU152451] |  | 74.6 |  |  | Validation result of HTS active: effect of the compound in the JARID1B AlphaScreen demethylase assay (JARID1B; [3]): 2.82; Artifact signal: effect of the compound when it is incubated with bio-H3K4me2 peptide [1, 4]: −3.09
35 | CC(C)=CCc1c2c(c3occ(-c4ccc(O)c(O)c4)c(=O)c3c1O)C=CC(C)(C)O2 [YU155407, POMIFERIN, reference compound] |  |  |  |  | Inhibitory effect (percent) (JARID1B; [2]): 91.09%; Validation result of HTS active: effect of the compound in the JARID1B AlphaScreen demethylase assay (JARID1B; [3]): 16.14; Artifact signal: effect of the compound when it is incubated with bio-H3K4me2 peptide [1, 4]: 10.52
36 | C=CCN(CC=C)C(=S)Nc1sc(C)c(C)c1C(=O)OC [YU153003] | 16.80 | 65.6 | 23.56% | 6.76% | 
37 | CN(C)c1cccc2c(C=O)ccc(N(C)C)c12 [YU145980] | 28.03 | 32.3 | 35.60% | 7.56% | 
